Experimental data published in patent publication US6342504B1, “Aromatic heterocyclic derivatives as enzyme inhibitors” (priority 1994, dated 2002).
Where a name gives a salt, the structure may show the parent alone. Marks after values point to notes of the source that are not given here.

Experiments:
[1] = tested on: FeCl3-induced occlusive thrombus in rat carotid artery; assay: Rat model of FeCl3-induced platelet-dependent arterial thrombosis; assay type: in vivo; settings: for Incidence of Occlusion: n 6
From the text: Rat Model of FeCl3-induced Platelet-dependent Arterial Thrombosis
Kurz, K. D., Main, B. W., and Sandusky, G. E., Thromb. […] In this model a platelet-rich, occlusive thrombus is formed in a segment of the rat carotid artery treated locally with a fresh solution of FeCl3 absorbed to a piece of filter paper. The FeCl3 is thought to diffuse into the treated segment of artery and cause de-endothelialization of the affected vessel surface. […] The effect of a test compound on the incidence of occlusive thrombus formation following the application of the FeCl3 is monitored by ultrasonic flowtometry and is used as the primary end point. The use of flowtometry to measure carotid artery blood flow, is a modification of the original procedure in which thermal detection of clot formation was employed. Kurz, K. D., Main, B. W., and Sandusky, G. E., Thromb.
Male Harlan Sprague Dawley rats (420-450 g) were acclimated at least 72 hours prior to use and fasted for 12 hours prior to surgery with free access to water. The animals were prepared, anesthetized with Nembutal followed by the insertion of catheters for blood pressure monitoring, drug and anesthesia delivery. The left carotid artery was isolated by making a midline cervical incision followed by blunt dissection and spreading techniques to separate a 2 cm segment of the vessel from the carotid sheath. A silk suture is inserted under the proximal and distal ends of the isolated vessel to provide clearance for the placement of a ultrasonic flow probe (Transonic) around the proximal end of the vessel. The probe is then secured with a stationary arm.
The test compound was administered as a single intravenous bolus at the doses outlined in Table 4 after placement of the flow probe and 5 minutes prior to the thrombogenic stimulus. At t=0, a 3 mm diameter piece of filter paper (Whatman #3) soaked with 10 microliters of a 35% solution of fresh FeCl3 (made up in water) was applied the segment of isolated carotid artery distal to the flow probe. Blood pressure, blood flow, heart rate, and respiration were monitored for 60 minutes.
The incidence of occlusion (defined as the attainment of zero blood flow) was recorded as the primary end point.
This allows a direct comparison of the antithrombotic efficacy of [3-[(benzylsulfonyl)amino]-2-oxo-1,2-dihydropyridyl]acetyl-L-argininal, with other antithrombotic agents which have also been evaluated in this model as described above. Table 5 lists the ED50 values for several well known anticoagulant agents in this model compared to [3-[(benzylsulfonyl)amino]-2-oxo-1,2-dihydropyridyl]acetyl-L-argininal.

[2] = target: T1, human alpha thrombin (Homo sapiens, UniProt P00734); assay: Thrombin (fIIa) IC50 assay, chromogenic substrate Pefachrome t-PA; assay type: biochemical
T1 construct: Purified human alpha-thrombin; purchased Enzyme Research Laboratories, Inc
Protocol: (§1) The ability of compounds of the present invention to act as a selective inhibitor of thrombin catalytic activity was assessed by determining the concentration of compound which inhibited the activity of this enzyme by 50%, (IC50), and comparing this value to that determined for all or some of the following related serine proteases: recombinant tissue plasminogen activator (rt-PA), plasmin, activated protein C, chymotrypsin, factor Xa and trypsin.
(§2) The buffer used for all assays was HBSA (10 mM HEPES, pH 7.5, 150 mM sodium chloride, 0.1% bovine serum albumin).
(§3) The assay for IC50 determinations was conducted by combining in appropriate wells of a Corning microtiter plate, 50 microliters of HBSA, 50 microliters of the test compound at a specified concentration (covering a broad concentration range) diluted in HBSA (or HBSA alone for VO (uninhibited velocity) measurement), and 50 microliters of the enzyme diluted in HBSA. Following a 30 minute incubation at ambient temperature, 50 microliters of the substrate at the concentrations specified below were added to the wells, yielding a final total volume of 200 microliters. The initial velocity of chromogenic substrate hydrolysis was measured by the change in absorbance at 405 nm using a Thermo Max® Kinetic Microplate Reader over a 5 minute period in which less than 5% of the added substrate was utilized. The concentration of added inhibitor which caused a 50% decrease in the initial rate of hydrolysis was defined as the IC50 value.
Enzyme activity was determined using the chromogenic substrate, Pefachrome t-PA (CH3SO2-D-hexahydrotyrosine-glycyl-L-Arginine-p-nitroaniline, obtained from Pentapharm Ltd.). The substrate was reconstituted in deionized water prior to use. Purified human a-thrombin was obtained from Enzyme Research Laboratories, Inc. The buffer used for all assays was HBSA (10 mM HEPES, pH 7.5, 150 mM sodium chloride, 0.1% bovine serum albumin).
IC50 determinations were conducted where HBSA ([…]), a-thrombin (50 μl) and inhibitor (50 μl) (covering a broad concentration range), were combined in appropriate wells and incubated for 30 minutes at room temperature prior to the addition of substrate Pefachrome-t-PA (50 μl). The initial velocity of Pefachrome t-PA hydrolysis was measured by the change in absorbance at 405 nm using a Thermo Max® Kinetic Microplate Reader over a 5 minute period in which less than 5% of the added substrate was utilized. The concentration of added inhibitor which caused a 50% decrease in the initial rate of hydrolysis was defined as the IC50 value.

[3] = target: T2, human aPC (Homo sapiens, UniProt P04070); assay: biochemical; settings: 30 minute incubation; 1.0 nM enzyme; read-out: IC50 aPC (Table 2)
T2 construct: purchased Hematologic Technologies, Inc
Protocol: as §2
Following a 30 minute incubation at ambient temperature, 50 microliters of the substrate at the concentrations specified below were added to the wells, yielding a final total volume of 200 microliters.
Activated Protein C (aPC) Assay
aPC catalytic activity was determined using the chromogenic substrate, Pefachrome PC (delta-carbobenzloxy-D-lysine-L-prolyl-L-arginine-p-nitroaniline dihydrochloride), obtained from Pentapharm Ltd.). […] Purified human aPC was obtained from Hematologic Technologies, Inc. The enzyme was diluted into HBSA prior to assay in which the final concentration was 1.0 nM.

[4] = target: human plasmin (Homo sapiens, UniProt P00747); assay: biochemical; settings: 30 minute incubation; read-out: IC50 Plasmin (Table 2)
Protocol: as §1, §2, §3
Plasmin catalytic activity was determined using the chromogenic substrate, S-2366 [L-pyroglutomyl-L-prolyl-L-arginine-p-nitroaniline hydrochloride], which was obtained from Pharmacia-Upjohn. The substrate was made up in deionized water followed by dilution in HBSA prior to the assay in which the final concentration was 300 micromolar (about 2.5-times Km). Purified human plasmin was obtained from Enzyme Research Laboratories, Inc. The enzyme was diluted into HBSA prior to assay in which the final concentration was […].

Chain of human plasmin (P00747 97-580): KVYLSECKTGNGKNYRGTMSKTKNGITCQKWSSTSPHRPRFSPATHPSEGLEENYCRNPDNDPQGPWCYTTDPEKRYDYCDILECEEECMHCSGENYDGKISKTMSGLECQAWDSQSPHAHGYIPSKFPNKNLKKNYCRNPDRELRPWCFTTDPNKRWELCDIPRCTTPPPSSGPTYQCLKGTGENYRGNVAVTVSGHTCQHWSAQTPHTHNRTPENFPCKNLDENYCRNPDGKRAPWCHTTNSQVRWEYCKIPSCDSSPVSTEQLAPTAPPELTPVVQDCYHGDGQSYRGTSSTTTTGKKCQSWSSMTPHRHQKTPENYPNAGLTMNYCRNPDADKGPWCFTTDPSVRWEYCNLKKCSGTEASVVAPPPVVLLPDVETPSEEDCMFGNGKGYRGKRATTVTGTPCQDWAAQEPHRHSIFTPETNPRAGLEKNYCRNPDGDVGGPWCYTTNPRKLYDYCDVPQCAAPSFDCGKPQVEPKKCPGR
Chain of human plasmin (P00747 581-810): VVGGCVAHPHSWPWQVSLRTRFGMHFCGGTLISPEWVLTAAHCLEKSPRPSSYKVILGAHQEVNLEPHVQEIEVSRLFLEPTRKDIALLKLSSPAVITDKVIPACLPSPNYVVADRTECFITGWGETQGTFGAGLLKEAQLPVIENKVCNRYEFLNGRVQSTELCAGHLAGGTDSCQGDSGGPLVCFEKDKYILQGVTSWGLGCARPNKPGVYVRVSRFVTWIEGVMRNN
T2 sequence (P04070 43-197): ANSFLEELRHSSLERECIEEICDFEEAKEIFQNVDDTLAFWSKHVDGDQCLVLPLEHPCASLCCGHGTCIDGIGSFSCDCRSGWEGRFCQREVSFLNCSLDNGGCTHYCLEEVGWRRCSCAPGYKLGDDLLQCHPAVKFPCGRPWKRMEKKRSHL
T2 sequence (P04070 212-461): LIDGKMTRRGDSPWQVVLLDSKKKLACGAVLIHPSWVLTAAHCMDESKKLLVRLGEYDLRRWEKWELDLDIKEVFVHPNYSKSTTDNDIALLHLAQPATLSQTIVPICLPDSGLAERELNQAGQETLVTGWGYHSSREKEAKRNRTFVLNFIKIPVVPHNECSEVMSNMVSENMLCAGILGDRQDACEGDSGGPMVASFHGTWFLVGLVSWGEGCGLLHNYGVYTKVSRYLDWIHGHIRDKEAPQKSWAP

## N=C(N)NCCC[C@@H](C=O)NC(=O)Cn1cccc(NS(=O)(=O)Cc2ccccc2)c1=O [Example 10, [3-[(benzylsulfonyl)amino]-2-oxo-1,2-dihydropyridyl]acetyl-L-argininal, trifluoroacetate salt]
[1]; 0.3 mg/kg single intravenous bolus 5 minutes prior to FeCl3, monitored 60 minutes
  Incidence of Occlusion: 6/6
[1]; 1.0 mg/kg single intravenous bolus 5 minutes prior to FeCl3
  Incidence of Occlusion: 3/6
[1]; 3.0 mg/kg single intravenous bolus 5 minutes prior to FeCl3, p ≦ 0.05 from saline control
  Incidence of Occlusion: 1/6*
[1]; 5.0 mg/kg single intravenous bolus 5 minutes prior to FeCl3, p ≦ 0.05 from saline control
  Incidence of Occlusion: 0/6*
[1]; Rattus norvegicus, read-out: ED50 for thrombus prevention (dose that prevents complete thrombotic occlusion in 50% of animals)
  ED50: 1 mg/kg
[2]
  IC50: 0.66 nM
[3]
  IC50: > 2500 nM
[4]
  IC50: > 2500 nM
